Where two headings read alike, the source gives them in different places. Blank lines part the entries; values can stand above or below the compound they belong to.
Tests used:
glioblastoma cells = tested on: glioblastoma cells; parameters: method as in PMID 29683097; details: cited from earlier work
THP-1 cells = tested on: THP-1 cells; parameters: method as in PMID 35525212; details: read-out: IC50, antiproliferative activity; cited from earlier work
H3K4me1/2 = details: cited from earlier work
MCF-7 = details: read-out: IC50, antiproliferative activity, cited from earlier work
HepG2 = tested on: HepG2; parameters: method as in earlier work; details: HepG2 cell line; read-out: IC50, antiproliferative activity; cited from earlier work
PC3 = tested on: PC3; parameters: method as in earlier work; details: PC3 cell line; read-out: IC50, antiproliferative activity; cited from earlier work
HepG2 cells [1] = assay: Xenograft study, HepG2 cells in nude mice; assay type: in vivo, BALB/c nude mice; details: 10 mg/kg by gavage every day for 21 days, nude mice bearing HepG2 cells
Method: Tumorigenesis in nude mice could stimulate the growth process of human tumours in the body, and could be used to develop and evaluate the effectiveness and safety of anti-cancer candidates. Therefore, xenograft studies in nude mice were performed to evaluate anticancer effects of compound 14. Animals were treated according to the protocols established by the ethics committee of The Fourth Clinical College of Xinxiang Medical University. The in vivo experiments were carried out in accordance with the approved guidelines and approved by the ethics committee of The Fourth Clinical College of Xinxiang Medical University. The number of ethics approvals is XMU-2024–01-03. All authors have adhered to the ARRIVE guidelines (https://arriveguidelines.org/). BALB/c nude mice were purchased from Beijing Huafukang Biotechnology Co., LTD (Beijing, China), and fifteen mice were used in this study (aged 6–7 weeks and weighing 20–30 g). Before the animal experiments, all nude mice were given a week to adjust to the clean, hygienic and specific-pathogen-free environment. All nude mice were taken care of instainless steel cages with a constant temperature of 60% humidity, 25 °C and a 12/12 light/dark cycle. Nude mice were fed with refreshing water and nourishing food everyday.
Then, nude mice were anaesthetised with 2% isoflurane and 0.3 l/min of oxygen by the small animal anaesthesia machine (Beijing Yi Zejia Technology Co., LTD, Beijing, China). 3 × 10^5 human liver cancer HepG2 cells were subcutaneously injected in the right armpit of mice. Until the volume of tumours reached 60–100 mm^3, all mice were randomly divided into three groups and each group had five nude mice. An amount of 60 mg/kg of compound 14, 10 mg/kg of seclidemstat and water as the control group were given by gavage every day for 21 days. Weight of mice and tumour volume were measured every 3 d. All nude mice in this xenograft studies were performed euthanizing procedures using a carbon dioxide euthanasia chamber (Shanghai Yuyan Instruments Co., Ltd, Shanghai, China). The flow rate of carbon dioxide was adjusted at 20% of the volume of the euthanasia chamber per minute. Once nude mice were unconscious, the flow rate was increased to 100% of the euthanasia chamber volume per minute. Death was confirmed by immobility, non-breathing and pupil enlargement. Tumours form BALB/c nude mice were isolated and weighed.

LSD1 [2] = molecular target: T1, LSD1 (Homo sapiens, UniProt O60341); assay: LSD1 screening assay kit (enzymatic activity); assay type: biochemical; parameters: purchased Cayman Chemical (Ann Arbor, MI); details: fluorescence, read-out: IC50 against LSD1
Method: After the incubation for 30 min at 37 °C, a mixture of horseradish peroxidase solution (20 μl) and fluorometric substrate solution (10 μl) was added to each well. Then, the 96-well plate was incubated for 15 min at 37 °C. Finally, the fluorescence of each well in the 96-well plate was measured at an emission wavelength of 590 nm and an excitation wavelength of 530 nm by a fluorimeter (Agilent Technologies Inc., Palo Alto, CA). Seclidemstat, a famous LSD1 inhibitor, was used as the control drug in this assay.

MOLP-8 cells = tested on: MOLP-8 cells; parameters: method as in PMID 36476642; details: myeloma MOLP-8 cells; read-out: IC50, antiproliferative activity; cited from earlier work
KMS-12-PE cells = tested on: KMS-12-PE cells; parameters: method as in PMID 36476642; details: myeloma KMS-12-PE cells; read-out: IC50, antiproliferative activity; cited from earlier work
NB cells = tested on: NB cells; parameters: method as in PMID 36223680; details: cited from earlier work
HCT-116 cells = tested on: HCT-116 cells; parameters: method as in PMID 33773285; details: read-out: IC50, antiproliferative activity; cited from earlier work
LSD1 [3] = molecular target: T1, LSD1; parameters: purchased Cayman Chemical (Ann Arbor, MI); details: cited from earlier work
ovarian cancer cells = tested on: ovarian cancer cells; parameters: method as in PMID 31264855; details: cited from earlier work
HepG2 cells [4] = assay: CCK8 assay, HepG2 liver cancer cells; assay type: cell-based; details: Homo sapiens, CCK8, control drug, read-out: IC50, antiproliferative activity
Method: (§1) C42B, PC3, Caco-2, HepG2, MCF7, HL-60, 8505 C, OVCAR-3, and A549 were cultured to screen the broad-spectrum antiproliferative activity of compound 14. For above cell lines, three thousand cells per well were seeded in the 96-well plate and treated by compound 14 for 48 or 72 h at different concentrations (0, 5, 10, and 20 μM). In addition, HepG2, HEP3B, HUH6, and HUH7 were cultured to screen its antiproliferative activity against liver cancer cell lines. For these liver cancer cell lines, two thousand cells per well were seeded in the 96-well plate and treated by compound 14 for 48 h at different concentrations (0, 0.625, 1.25, 2.5, and 5 μM). Then, 10 μl of CCK8 was added into each well and cells were incubated in a humidified atmosphere of 5% CO2 at 37 °C for 4 h. The 96-well plate was measured with a microplate reader (Bio-Tek, San Diego, CA) at a wavelength of 450 nm to calculate IC50 values.

PC3 cells = assay: CCK8 assay, PC3 prostate cancer cells; assay type: cell-based; details: Homo sapiens, PC-3, CCK8, control drug, read-out: IC50, antiproliferative activity
Method: as §1

MCF7 cells = assay: CCK8 assay, MCF7 breast cancer cells; assay type: cell-based; details: Homo sapiens, CCK8, control drug, read-out: IC50, antiproliferative activity
Method: as §1

Caco-2 cells = assay: CCK8 assay, Caco-2 colon cancer cells; assay type: cell-based; details: Homo sapiens, CCK8, control drug, read-out: IC50, antiproliferative activity
Method: as §1

HL-60 cells = assay: CCK8 assay, HL-60 leukaemia cells; assay type: cell-based; details: Homo sapiens, CCK8, control drug, read-out: IC50, antiproliferative activity
Method: as §1

8505 C cells = assay: CCK8 assay, 8505 C thyroid cancer cells; assay type: cell-based; details: Homo sapiens, CCK8, control drug, read-out: IC50, antiproliferative activity
Method: as §1

A549 cells = assay: CCK8 assay, A549 lung cancer cells; assay type: cell-based; details: Homo sapiens, CCK8, control drug, read-out: IC50, antiproliferative activity
Method: as §1

C42B cells = assay: CCK8 assay, C42B prostate cancer cells; assay type: cell-based; details: Homo sapiens, CCK8, control drug, read-out: IC50, antiproliferative activity
Method: as §1

OVCAR-3 cells = assay: CCK8 assay, OVCAR-3 ovarian cancer cells; assay type: cell-based; details: Homo sapiens, CCK8, control drug, read-out: IC50, antiproliferative activity
Method: as §1

[5] = tested on: diffuse large B-cell lymphoma cells; parameters: method as in PMID 26002965; details: cited from earlier work
ACHN cells = tested on: ACHN cells; parameters: method as in PMID 33527838; details: cited from earlier work
various cell lines = tested on: various cell lines; parameters: method as in PMID 26890117; details: cited from earlier work

SMILES: CCCCCCCCCCCCSC(=O)CC1CC(=O)NC(=O)C1 [Compound 7]
cell cycle and clonogenic capacity (glioblastoma cells): induces cell cycle arrest and reduces clonogenic capacity

SMILES: COc1cc2nc(NCCCN(C)C)nc(NC3CCN(Cc4ccc5ccccc5c4)CC3)c2cc1OC [Compound 2]
IC50 (THP-1 cells): 0.3 µM | expression levels of H3K4me2 (H3K4me1/2): increases the expression levels of H3K4me2

SMILES: O=C1CCC(NC(=O)CSc2nnc3c(=O)[nH]c4ccccc4n23)C(=O)N1 (stereo not shown) [Compound 8]
IC50 (MCF-7; MCF-7 cell line): 10.1 µM | IC50 (HepG2): 9.81 µM | IC50 (PC3): 15.5 µM

SMILES: C/C(=N\NC(=O)c1cccc(S(=O)(=O)N2CCN(C)CC2)c1)c1cc(Cl)ccc1O [Seclidemstat]
growth of subcutaneous tumours (HepG2 cells [1]): inhibited the growth of subcutaneous tumours | IC50 (LSD1 [2]): 0.02 ± 0.01 µM

SMILES: O=C1CCC(CS(=O)(=O)Cc2ccccc2)C(=O)N1 (stereo not shown) [Compound 10]
IC50 (MOLP-8 cells): 5.52 µM | IC50 (KMS-12-PE cells): 5.17 µM

SMILES: O=S(=O)(Nc1ccc(Br)cc1-c1nn[nH]n1)c1ccc(-c2ccc(Cl)cc2)cc1 [Compound 3]
synergistic effect with bortezomib (NB cells): displays the synergistic effect against NB cells with bortezomib

SMILES: Cc1ccc(S(=O)(=O)CCC(=O)Nc2ccc(S(N)(=O)=O)cc2)cc1 [Compound 11]
IC50 (MCF-7; MCF-7 cells): 0.67 µM | IC50 (HCT-116 cells): 0.57 µM

SMILES: COc1ccc(CN(C(=O)CSC(=S)N2CCN(c3ccc(N)cc3)CC2)c2cc(OC)c(OC)c(OC)c2)cc1O [Compound 6]
LSD1 inhibition (LSD1 [3]): inhibits LSD1 | accumulation of H3K4me1/2 (H3K4me1/2): induces the accumulation of H3K4me1/2

SMILES: COc1cccc(-c2cccc(NC(=O)CCc3cccc4c3B(O)OC4)c2)c1 [Compound 12]
colony formation and apoptosis (ovarian cancer cells): significantly inhibits colony formation and induces apoptosis

IC50 (HepG2 cells [4]): 9.87 µM | IC50 (PC3 cells): 12.3 µM | IC50 (MCF7 cells): > 20 µM | IC50 (Caco-2 cells): > 20 µM | IC50 (HL-60 cells): 7.25 µM | IC50 (8505 C cells): 12.4 µM | IC50 (A549 cells): > 20 µM | IC50 (C42B cells): 16.7 µM | IC50 (OVCAR-3 cells): > 20 µM
SMILES: O=c1[nH]cc(F)c(=O)[nH]1 [5-Fluorouracil]

SMILES: Cc1nc2cccc(N)c2c(=O)n1C1CCC(=O)NC1=O (stereo not shown) [Compound 9]
apoptosis and proliferation [5]: induces apoptosis and inhibits proliferation

SMILES: O=C(c1ccc(OCCN2CCCCC2)cc1)c1c(-c2ccc(O)cc2)sc2cc(O)ccc12 [Raloxifene]
migration of ACHN cells (ACHN cells): inhibits migration against ACHN cells

SMILES: COc1cc(NC(=O)CCSc2nc3ccc(Cl)cc3c(=O)n2-c2ccc(F)cc2)cc(OC)c1OC [Compound 13]
anticancer effects (various cell lines): exhibits extensive-spectrum anticancer effects

Reference: publication PMC11843658 (Journal of Enzyme Inhibition and Medicinal Chemistry, 2025)
